Where “and” joins values, the source holds several entries; their conditions need not be identical. Equal values may be shown once. Marks after values point to notes of the source that are not given here.
What was measured:
[1] = test system: serum uric acid levels in patients with hyperuricemia; experiment: Randomized, double blind, placebo controlled clinical study on serum uric acid levels; format: in vivo, human; conditions: extracts 500 mg BID oral, febuxostat 40 mg OD, Mean±SD
Procedure: A randomized, double blind, placebo controlled, parallel-group study was performed to evaluate the effect of Terminalia chebula and Terminalia bellerica in comparison to Febuxostat and a placebo on serum uric acid levels in patients with hyperuricemia. The present study was a prospective, randomized, double blinded, placebo controlled trial. A total of 52 patients were enrolled to receive the study treatment in a randomized manner. The study was approved by the Institutional Ethics Committee and all the subjects gave written informed consent prior to their participation in the study. Hyperuricemia patients of either gender aged between 18 and 70 years were selected, with serum uric acid level ≧6.0 mg/dL and ≦12.0 mg/dL after having stopped all uric acid-lowering therapy for at least 10 days. Patients who were willing to comply with the requirements of the study and to give voluntary, written informed consent were enrolled into the study. Patients with a gout flare during screening or baseline visit were excluded. Patients currently using aspirin or other NSAIDS, diuretics, other medications with known urate-lowering effects were also excluded from the study. Patients with history or presence of nephrolithiasis or uncontrolled hypertension or diabetes, hepatic and renal impairment, pregnant or lactating females or secondary hyperuricemia (e.g. due to myeloproliferative disorder, or organ transplant) were excluded. After screening, all the eligible patients were randomized to either of the four treatment groups in a double blinded fashion for duration of 8 weeks, prospectively 12 weeks. Group 1—Terminalia chebula 500 mg—1 capsule of 500 mg orally twice a day (BID) after food. Group 2—Terminalia bellerica 500 mg—1 capsule of 500 mg orally twice a day (BID) after food. Group 3—Febuxostat—1 tablet of 40 mg (encapsulated in a similar capsule to that of Terminalia chebula/Terminalia bellerica/placebo capsules) once daily (OD) orally in the morning after food and an identical placebo capsule in the evening after food. […] At each visit they were evaluated for efficacy measurements and safety assessments. Serum uric acid levels were measured at baseline, end of 4 weeks, and end of 8 weeks. […] The subsequent 2 visits were scheduled at 4 weeks interval (visit 3—after 4 weeks of treatment, visit 4—after 8 weeks of treatment), vital signs, general examination; serum uric acid levels were measured. Pill count for study medication was evaluated. […] Study data is expressed as Mean±SD. Primary and secondary outcome measures were analyzed as the mean percentage reduction and absolute change in serum uric acid levels from baseline to 4 weeks, 8 weeks, and (prospectively) 12 weeks of treatment. […]

[2] = test system: hyperuricemic patients; experiment: Safety and tolerability assessment in the clinical study; format: in vivo, human; conditions: 8 weeks treatment; 13 patients per group; extracts 500 mg BID, febuxostat 40 mg OD
Procedure: Secondary objective: To evaluate the safety and tolerability of Terminalia chebula and Terminalia bellerica in hyperuricemic patients.
Safety lab investigations for hematological, hepatic and renal biochemical parameters were done at baseline and at the end of the study (8 weeks) and also as and when required (in case of any adverse drug reaction (ADR)). Subjects were interviewed for the presence of ADR and the same was recorded in the case report form (CRF). Compliance to therapy was assessed by pill count method.
The subsequent 2 visits were scheduled at 4 weeks interval (visit 3—after 4 weeks of treatment, visit 4—after 8 weeks of treatment), vital signs, general examination; serum uric acid levels were measured. Pill count for study medication was evaluated. At the (prospective) conclusion of the study, Visit 5 (after 12 weeks post treatment), vital signs, general examination, serum uric acid, routine safety lab investigations will be performed. […] Adverse Effects/SAE monitoring would be done throughout the course of study. Safety lab parameters will be done before and after treatment and as and when required. […]
2. Measurements of Tolerability will be assessed at the end of 8 weeks/12 weeks as: Good—no side effects; Fair—mild to moderate side effects; and/or Poor—severe side effects and withdrawal of therapy.

[3] = test system: COX-1; conditions: cited from earlier work
[4] = target: T1, COX-2 (Homo sapiens, UniProt P35354); conditions: cited from earlier work
T1 sequence (P35354 18-604): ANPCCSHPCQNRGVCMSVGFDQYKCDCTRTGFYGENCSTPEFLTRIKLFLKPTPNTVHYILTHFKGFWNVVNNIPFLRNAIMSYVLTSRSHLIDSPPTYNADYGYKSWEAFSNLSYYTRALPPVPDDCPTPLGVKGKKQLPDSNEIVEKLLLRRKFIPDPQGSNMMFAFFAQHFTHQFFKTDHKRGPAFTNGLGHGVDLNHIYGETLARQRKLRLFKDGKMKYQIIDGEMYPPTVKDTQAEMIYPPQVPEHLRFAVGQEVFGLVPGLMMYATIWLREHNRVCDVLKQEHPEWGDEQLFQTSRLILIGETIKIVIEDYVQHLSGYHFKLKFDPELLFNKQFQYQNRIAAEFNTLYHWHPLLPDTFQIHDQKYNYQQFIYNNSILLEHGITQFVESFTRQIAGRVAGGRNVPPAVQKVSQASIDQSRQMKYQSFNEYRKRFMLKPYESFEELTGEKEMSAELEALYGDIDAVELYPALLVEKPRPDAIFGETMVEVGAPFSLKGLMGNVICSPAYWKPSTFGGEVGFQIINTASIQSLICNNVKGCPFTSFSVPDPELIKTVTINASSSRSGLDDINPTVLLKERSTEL

[5] = test system: 5-LOX; conditions: cited from earlier work
[6] = target: maltase; conditions: reversible and non-competitive inhibitor; read-out: K(i) value, maltase; cited from earlier work
[7] = test system: HepG2 cells; conditions: cited from earlier work
[8] = test system: xanthine oxidase (XO); experiment: Superoxide radical scavenging assay by NBT hypoxanthine/XO method; format: biochemical; conditions: for % Control (superoxide generation by XO): water blank = 100
Procedure: One T. chebula (TC) based extract was tested at three different dilutions of 5, 25 and 50 μg/mL, and one T. bellerica (TB) based extract was tested at the same three dilutions. Standard positive control was allopurinol (AP) tested at 1, 5 and 10 μg/mL. […] Stock solutions of test materials were prepared at 20 mg/ml in water (TB and TC) or immediately prior to the experiment. Further dilutions were made in type I sterile water and the effect of test materials on XO-mediated free radical (superoxide) generation was assessed as previously described ([…] al., 2008), using hypoxanthine/XO/NBT (tetrazolium salt) system with the reaction product (formazan) followed at 570 nm with the BioRad microplate spectrophotometer 3550-UV. Allopurinol (AP) was the positive control, double-distilled water was the negative control (blank). P values representing statistical significance were calculated using paired t-test and threshold of statistical significance was fixed at p=0.05 and at least 15% difference as compared to the water control.

[9] = from baseline, negative = decrease

## Cc1nc(-c2ccc(OCC(C)C)c(C#N)c2)sc1C(=O)O [Febuxostat]
[1]; 13 patients per group
  Serum Uric Acid level at the end of 4 weeks: 7.23 ± 0.72 mg/dL
  Serum Uric Acid level at the end of 8 weeks: 6.08 ± 0.6 mg/dL
[1]; [9]
  Mean Percentage Reduction in Serum Uric Acid Level after 8 weeks: −29.58 ± 5.74 %
  Mean Percentage Reduction in Serum Uric Acid at the end of 4 weeks: −16.31 ± 5.32*^NS %
[2]
  Adverse effects reported: Two patients in the Febuxostat group had elevated mildly elevated total bilirubin and 1 patient had complained of nausea and vomiting

## beta-1-O-galloyl-2,4-chebuloyl-3,6-(R)-hexahydroxydiphenoyl-D-glucose [Chebulagic acid]
[3]
  IC50: 15 ± 0.288 µM
[4]
  IC50: 0.92 ± 0.011 µM
[5]
  IC50: 2.1 ± 0.057 µM
[6]
  Ki: 6.6 µM
[7]
  Enhancement of the cytotoxicity of doxorubicin: 20 fold

## Oc1ncnc2[nH]ncc12 [AP, allopurinol]
[8]
  ED50 (dose required for 50% inhibition of XO): 6 µg/mL
[8]; test material at 1 μg/ml
  % Control (superoxide generation by XO): 89%
[8]; test material at 5 μg/ml
  % Control (superoxide generation by XO): 54%
[8]; test material at 10 μg/ml
  % Control (superoxide generation by XO): 43%
